Patent publication US9896442B2, “Antifungal treatment” (Wisconsin Alumni Research Foundation, priority 2010, dated 2018)

Columns and labels:
[1] = tested on: Aspergillus fumigatus; assay: Agar disk diffusion; assay type: cell-based; conditions: disks containing 1 μg of test compound; FIG. 4
Method: Small molecule activity against the fungal pathogens Candida albicans and Aspergillus fumigatus was evaluated using an agar disk diffusion assay. Yeast (1×10^4) from an overnight culture of C. albicans was suspended in 600 μl of top agar (1% yeast extract (ThermoFisher), 2% peptone (ThermoFisher), 2% dextrose (Sigma), and 0.5% agar (Fisher)). This suspension was spread and allowed to solidify on 5 ml of base agar (YPD media containing 2% agar) in the well of a 6-well plate. Disks (6 mm AA, Whatman Inc., Piscataway, N.J., Cat#2017-006) were aseptically placed on a sterile Petri dish lid. Compounds selected from stage II (1 μg total) were each suspended in 100% dimethyl sulfoxide (DMSO) to a total volume of 5 μl, added to separate disks, and allowed to dry for five minutes. Fludioxonil (Sigma) and DMSO-only disks served as positive and negative controls, respectively. Disks were placed into separate wells and incubated at room temperature for 48 hours. Antifungal activity was determined based on the size of the zone of inhibition of C. albicans growth.
Activity against A. fumigatus was determined following the aforementioned disk diffusion assay. The protocol only differed in that 6.0×10^5 conidia were used instead of yeast, and the plates were incubated at 37° C. for 48 hours instead of room temperature (FIG. 4).

[2] = tested on: Drk1 reporter strain; assay: Drk1 reporter strain corroboration; assay type: cell-based
Excerpt: The results of the Hik1 histidine kinase reporter strain were corroborated with a Drk1 reporter strain, especially regarding compounds 13 and 33. Dr. David Andes, Dr. Nancy Keller, and the clinical microbiology laboratory at the University of Wisconsin Hospital provided the microbial strains used in this study (9-12).

[3] = tested on: C. lusitaniae; assay: Microbroth dilution (MIC), CLSI M27; assay type: cell-based; conditions: FIG. 5C
Method: (§1) Clinical and Laboratory Standards Institute (CLSI) protocol M27 was used to quantify the minimum inhibitory concentration (MIC) of compounds 13 and 33 against yeast fungal pathogens (13). Briefly, compounds were solubilized in 100% DMSO and serially diluted two-fold in a 96 well plate in 100 μl of RPMI medium. A 100 μl aliquot of RPMI medium containing 3×10^3 yeast/ml of an overnight culture was then added to each well. Medium, medium+yeast, and medium+yeast+DMSO wells were prepared as controls. Each well was prepared in triplicate. The plates were incubated at 35° C. for 48 hours. The MIC concentration was defined as the concentration at which no growth was visible by eye and the results verified by plating on YPD agar. The experiment was performed in duplicate. MIC concentrations were also defined against filamentous fungi using the CLSI protocol M38 (14). This protocol only differed from M27 in that 100 μl of medium containing 4×10^5 spores/ml were added instead of yeast (FIG. 5A-I).

[4] = tested on: Candida albicans; assay: Microbroth dilution (MIC), CLSI M27; assay type: cell-based; conditions: FIG. 5A
Method: as §1

[5] = tested on: Cryptococcus neoformans; assay: Microbroth dilution (MIC), CLSI M27; assay type: cell-based; conditions: FIG. 5F
Method: as §1

[6] = tested on: C. glabrata; assay: Microbroth dilution (MIC), CLSI M27; assay type: cell-based; conditions: FIG. 5E
Method: as §1

[7] = tested on: C. gattii; assay: Microbroth dilution (MIC), CLSI M27; assay type: cell-based; conditions: FIG. 5G
Method: as §1

[8] = tested on: C. krusei; assay: Microbroth dilution (MIC), CLSI M27; assay type: cell-based; conditions: FIG. 5D
Method: as §1

[9] = tested on: human red blood cells
Method: Briefly, human red blood cells (RBCs) were isolated via FICOLL® (Sigma) gradient centrifugation and stored on ice. The RBCs were pelleted by centrifugation and washed with PBS a total of three times. A 2% RBC suspension in PBS was made and stored on ice for less than one hour. Drugs were suspended in DMSO and two-fold serial dilutions were prepared in PBS with a total volume of 100 μl in a 96-well round-bottom plate in triplicate. Wells containing PBS and Triton X-100 (Sigma) were used as negative and positive controls of hemolysis, respectively. A 100 μl aliquot of the 2% RBC suspension was then added to each well. The plate was then incubated at 37° C. for one hour. The plate was then centrifuged at 2,500 rpm for five minutes to pellet the RBCs. A 50 μl aliquot of the supernatant was transferred to a fresh 96-well plate, and absorbance at 405 nm was measured using an automated plate reader to quantify heme release.

[10] = tested on: wild type Aspergillus fumigatus; assay: Microbroth dilution (MIC), CLSI M38; assay type: cell-based; conditions: FIG. 5H
Method: as §1

[11] = tested on: drug resistant A. fumigatus; assay: Microbroth dilution (MIC), CLSI M38; assay type: cell-based, Aspergillus fumigatus; conditions: FIG. 5I
Method: as §1

[12] = tested on: Aspergillus flavus; assay: Microbroth dilution against plant fungal pathogen; assay type: cell-based; conditions: four isolates of A. flavus; FIG. 8
Method: as §1, with “M38” left out, “5A-I). […] Briefly, the MICs of compounds 13 and 33 were determined for each of the 4 isolates and compared with the conventional antifungal compound, voriconazole (available from Sigma). […]” for “5A-I).”

[13] = tested on: C. albicans resistant to conventional antifungals fluconazole and micafungin; assay: Microbroth dilution (MIC), CLSI M27; assay type: cell-based, Candida albicans; conditions: FIG. 5B
Method: as §1

[14] = tested on: Candida albicans biofilm; assay: In vitro biofilm drug synergy (checkerboard, XTT); assay type: cell-based; conditions: for Synergy with Fluconazole by fractional inhibitory concentration (FIC): FIC from EC25, values ≦0.5 indicate synergy, FIG. 9; for growth reduction: alone and in combination
Method: Candida biofilms were formed in 96-well flat-bottom polystyrene plates (Fischer) as described previously ([…], Crawford K, Andes D R. Optimizing a Candida Biofilm Microtiter Plate Model for Measurement of Antifungal Susceptibility by XTT Assay. J. Clin. Microbiol. 2011 Jan., 2). Cells from an overnight culture grown in YPD shaking at 37° C. were enumerated by hemocytometer and suspended in RPMI-MOPS (Fisher) at a concentration of 10^6 cells/ml. A 100 μl of inoculum was added to each well of the plate. After 6 h incubation at 37° C., biofilms were gently washed twice with phosphate-buffered saline (PBS) to remove unattached cells. […] The ranges of concentrations of the fluconazole used included the standard doses given to humans. After overnight incubation at 37° C., biofilms were washed twice with PBS. Measurement of biofilm cell metabolic activity using the XTT reduction assay was performed as previously described ([…], Crawford K, Andes D R. Optimizing a Candida Biofilm Microtiter Plate Model for Measurement of Antifungal Susceptibility by XTT Assay. J. Clin. Microbiol. 2011 January, […], and Andes D. Synergistic Effect of Calcineurin Inhibitors and Fluconazole against Candida albicans Biofilms. Antimicrob Agents Chemother. 2008 March; 52(3): 1127-1132). Briefly, 90 μl of XTT at 1 mg/ml (Sigma) and 10 μl phenazine methosulfate at 320 μg/ml (Sigma) were added to each well, and the plate was incubated at 37° C. for 2 h. Viable cell number was assessed using the Absorbance at 492nm measured using an automated plate reader. Assays were performed in duplicate. The drug concentration resulting in a 25% reduction in optical density compared to the no-drug control wells was determined (EC25).

[15] = tested on: Candida albicans biofilms; assay: Candida biofilm XTT reduction assay; assay type: cell-based; conditions: 24 hours, FIG. 6
Method: Compound activity against C. albicans biofilm was assessed using a 96-well plate format as previously described by Nett et al. (15). Briefly, the C. albicans inoculum was prepared by diluting an overnight culture grown at 37° C. in RPMI-MOPS to 1×10^6 in RPMI-MOPS based on hemocytometer counts. An aliquot of 100 μl of the inoculum was added to each well of a 96-well flat-bottom polystyrene plate. After a 6-h incubation at 37° C., the wells were washed with phosphate-buffered saline (PBS) three times to remove any non-adherent cells. Fresh medium and fluconazole (Sigma), compound 13, and compound 33 were added and the plates were incubated at 37° C. for 24 hours. The XTT reduction assay was used to quantify the viability of biofilm cell as previously described (11). Briefly, 90 μl of (2,3)-bis-(2-Methoxy-4-Nitro-5-Sulphenyl)-(2H)-Tetrazolium-5-Carboxanilide (XTT; 1 mg/ml) (Sigma) and 10 μl phenazine methosulfate (320 μg/ml) (Sigma) were added to each well, and the plate was incubated for 2 h at 37° C. Cell viability was determined by measuring the absorbance at 490 nm using an automated plate reader. The biofilm growth assay was performed in duplicate.

[16] = tested on: Hik1 Saccharomyces; assay: Hik1 Saccharomyces reporter strain growth assay (small molecule screen); assay type: cell-based; conditions: FIG. 2
Excerpt: To identify putative antifungals that act directly or indirectly through histidine kinase homologs of Drk1, we used a high throughput growth assay that uses a yeast reporter strain expressing a heterologous two-component sensor kinase (Hik1) to identify compounds that target the kinase and inhibit/kill the yeast. Hik1 and Drk1 are very closely related having near 80% amino acid sequence identity (FIG. 1). The Saccharomyces reporter contained an episomal plasmid with the hybrid histidine kinase Hik1 under the control of the galactose promoter (8). The Saccharomyces strain was provided by the Osada lab from RIKEN (Institute of Physical and Chemical Research, 2-1 Hirosawa, Wako, Saitama, 351-0198, Japan). It was used for screening initially. […]

[17] = FIG. 9A, compound 13 experiment: fluconazole at 62.5 ug/ml, 13 at 0.8 ug/ml
[18] = FIG. 9B, compound 33 experiment: fluconazole at 62.5 ug/ml, 33 at 1.6 ug/ml

| Compound | Inhibition of Aspergillus growth (zone of inhibition) [1] | Hik1 reporter strain results corroborated with Drk1 reporter strain [2] | Activity (MIC, cumulative inhibition) [3] | Activity (MIC, cumulative inhibition) [4] | Activity (MIC, cumulative inhibition) [5] | Activity (MIC, cumulative inhibition) [6] | Activity (MIC, cumulative inhibition) [7] | Activity (MIC, cumulative inhibition) [8] | Hemolysis (heme release, absorbance at 405 nm) compared with amphotericin B [9] | Activity (MIC, cumulative inhibition) [10] | Activity (MIC, cumulative inhibition) [11] | Cumulative inhibition of Aspergillus flavus [12] | Activity (MIC, cumulative inhibition) [13] | Synergy with Fluconazole by fractional inhibitory concentration (FIC) [14] | growth reduction [14, 17] | Concentration inhibiting Candida biofilm growth [15] | growth reduction [14, 18] | Growth of Hik1 Saccharomyces on galactose with fludioxonil ([16]; galactose (Hik1 induced)) | Growth of Hik1 Saccharomyces in glucose with fludioxonil ([16]; glucose, which does not induce Hik1) |
| --- | --- | --- | --- | --- | --- | --- | --- | --- | --- | --- | --- | --- | --- | --- | --- | --- | --- | --- | --- |
| C[C@@H]1[C@H](O)[C@@H](C)/C=C/C=C/C=C/C=C/C=C/C=C/C=C/[C@H](O[C@@H]2O[C@H](C)[C@@H](O)[C@H](N)[C@@H]2O)C[C@@H]2O[C@](O)(C[C@@H](O)C[C@@H](O)[C@H](O)CC[C@@H](O)C[C@@H](O)CC(=O)O[C@H]1C)C[C@H](O)[C@H]2C(=O)O [amphotericin B, reference compound] | created zones of inhibition | – | – | – | – | – | – | – | – | – | – | – | – | – | – | – | – | – | – |
| O=[N+]([O-])c1ccc(/C=C/c2ccc([N+](=O)[O-])o2)cc1 [Compound 13] | inhibited growth | corroborated | active | active | active | active | active | active | less hemolytic | active | active | inhibition | active | synergy | 18% | – | – | – | – |
| OC(Cn1cncn1)(Cn1cncn1)c1ccc(F)cc1F [fluconazole, reference compound] | – | – | – | – | – | – | – | – | – | – | – | – | – | – | 15% | > 1000 µg/mL | approximately 6% | – | – |
| CSc1nnc(Sc2ncc([N+](=O)[O-])s2)s1 [Compound 33] | inhibited growth | corroborated | active | active | active | active | active | active | less hemolytic | active | active | inhibition | active | synergy | – | – | approximately 9% | – | – |
| N#Cc1c[nH]cc1-c1cccc2c1OC(F)(F)O2 [fludioxonil] | created zones of inhibition | – | – | – | – | – | – | – | – | – | – | – | – | – | – | – | – | inhibited Saccharomyces growth | uninhibited |
